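Five concentrations, 48 hours, 96-well plates. The concentration for 50% growth inhibition is given as GI50.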 Calls of active or inactive are those of the source. Rule as the data show it: active = GI50 up to about 1.1 µM and inactive = higher.
Assays:
Test in all cases: growth of human tumour cells (NCI), 48 h
[1] = system: 786-0
[2] = system: A498
[3] = system: A549
[4] = system: ACHN
[5] = system: BT-549
[6] = system: CAKI-1
[7] = system: CCRF-CEM
[8] = system: COLO 205
[9] = system: DU-145
[10] = system: EKVX
[11] = system: HCC 2998
[12] = system: HCT-116
[13] = system: HCT-15
[14] = system: HL-60
[15] = system: HOP-62
[16] = system: HOP-92
[17] = system: HT-29
[18] = system: Hs-578T
[19] = system: IGROV-1
[20] = system: K562
[21] = system: KM12
[22] = system: LOX IMVI
[23] = system: M14
[24] = system: MCF7
[25] = system: MDA-MB-231
[26] = system: MDA-MB-435
[27] = system: MDA-N
[28] = system: MOLT-4
[29] = system: Malme-3M
[30] = system: NCI-H226
[31] = system: NCI-H23
[32] = system: NCI-H460
[33] = system: NCI-H522
[34] = system: NCI/ADR-RES
[35] = system: OVCAR-3
[36] = system: OVCAR-4
[37] = system: OVCAR-5
[38] = system: OVCAR-8
[39] = system: PC-3
[40] = system: RPMI-8226
[41] = system: RXF 393
[42] = system: SF-268
[43] = system: SF-295
[44] = system: SF-539
[45] = system: SK-MEL-28
[46] = system: SK-MEL-2
[47] = system: SK-MEL-5
[48] = system: SK-OV-3
[49] = system: SN12C
[50] = system: SNB-19
[51] = system: SNB-75
[52] = system: SR
[53] = system: SW-620
[54] = system: T47D
[55] = system: TK-10
[56] = system: U-251
[57] = system: UACC-257
[58] = system: UACC-62
[59] = system: UO-31
[60] = system: DLD-1
[61] = system: DMS-114
[62] = system: DMS-273
[63] = system: LXFL 529
[64] = system: M19-MEL
[65] = system: SNB-78
[66] = system: KM-20L2

In the case of `CC(=O)OC(C)c1cc2c(s1)C(=O)c1scc(C(C)OC(C)=O)c1C2=O` (stereo not drawn), the GI50 [1] is reported as 0.244 µM (active), the GI50 [2] is reported as 0.619 µM (active) and the GI50 [3] is reported as 0.363 µM (active). For the same molecule, the GI50 [4] was 0.238 µM (active), the GI50 [5] was 0.218 µM (active) and the GI50 [6] was 1.56 µM (inactive). The GI50 [7] was 0.367 µM (active), the GI50 [8] was 0.512 µM (active) and the GI50 [9] was 0.178 µM (active). The GI50 [10] was 0.847 µM (active), the GI50 [11] was 0.317 µM (active) and the GI50 [12] was 0.285 µM (active). For the same molecule, the GI50 [13] was 0.195 µM, the GI50 [14] was 0.646 µM (active) and the GI50 [15] was 0.191 µM (active). For the same molecule, the GI50 [16] was 1.71 µM (inactive), the GI50 [17] was 0.391 µM (active) and the GI50 [18] was 0.339 µM (active). For the same molecule, the GI50 [19] was 0.662 µM (active), the GI50 [20] was 0.355 µM (active) and the GI50 [21] was 0.195 µM (active). The GI50 [22] was 0.118 µM (active), the GI50 [23] was 0.117 µM (active) and the GI50 [24] was 0.251 µM (active). The GI50 [25] was 0.473 µM (active), the GI50 [26] was 0.0292 µM (active) and the GI50 [27] was 0.0817 µM (active). The GI50 [28] was 0.324 µM (active), the GI50 [29] was 0.139 µM (active) and the GI50 [30] was 2.24 µM (inactive). For the same molecule, the GI50 [31] was 0.157 µM (active), the GI50 [32] was 0.167 µM (active) and the GI50 [33] was 0.215 µM (active). The GI50 [34] was 0.255 µM (active), the GI50 [35] was 0.307 µM (active) and the GI50 [36] was 0.298 µM (active). For the same molecule, the GI50 [37] was 0.57 µM (active), the GI50 [38] was 0.24 µM (active) and the GI50 [39] was 0.292 µM (active). The GI50 [40] was 0.223 µM (active), the GI50 [41] was 0.301 µM (active) and the GI50 [42] was 0.211 µM (active). For the same molecule, the GI50 [43] was 0.164 µM (active), the GI50 [44] was 0.175 µM (active) and the GI50 [45] was 0.226 µM (active). The GI50 [46] was 0.227 µM (active), the GI50 [47] was 0.0653 µM (active) and the GI50 [48] was 2.16 µM (inactive). For the same molecule, the GI50 [49] was 0.288 µM (active), the GI50 [50] was 0.201 µM (active) and the GI50 [51] was 0.185 µM (active). For the same molecule, the GI50 [52] was 0.21 µM (active), the GI50 [53] was 0.298 µM (active) and the GI50 [54] was 0.661 µM (active). The GI50 [55] was 0.571 µM (active), the GI50 [56] was 0.25 µM (active) and the GI50 [57] was 0.174 µM (active). For the same molecule, the GI50 [58] was 0.212 µM (active) and the GI50 [59] was 0.204 µM (active).
`CCCSc1nc(COC(=O)NC)c(COC(=O)NC)n1C` was tested, and the GI50 [1] was 69.5 µM (inactive), the GI50 [2] was 46 µM (inactive) and the GI50 [4] was 23.9 µM (inactive). For the same molecule, the GI50 [6] was 32.8 µM (inactive), the GI50 [7] was 29.6 µM (inactive) and the GI50 [60] was > 100 µM (inactive). The GI50 [61] was 58.2 µM (inactive), the GI50 [62] was 48.9 µM (inactive) and the GI50 [14] was 29.4 µM (inactive). For the same molecule, the GI50 [15] was 80.7 µM (inactive), the GI50 [16] was 56 µM (inactive) and the GI50 [20] was 46.2 µM (inactive). For the same molecule, the GI50 [63] was 36.3 µM (inactive), the GI50 [23] was > 100 µM (inactive) and the GI50 [64] was 88.1 µM (inactive). The GI50 [28] was 21.2 µM (inactive), the GI50 [29] was 86.5 µM (inactive) and the GI50 [31] was 54.2 µM (inactive). The GI50 [32] was 39.7 µM (inactive), the GI50 [36] was 93.3 µM (inactive) and the GI50 [40] was 25 µM (inactive). The GI50 [44] was 64.1 µM (inactive), the GI50 [45] was > 100 µM (inactive) and the GI50 [46] was 53.2 µM (inactive). The GI50 [49] was 88.7 µM (inactive), the GI50 [51] was 49 µM (inactive) and the GI50 [65] was 63.2 µM (inactive). For the same molecule, the GI50 [52] was 29.4 µM (inactive), the GI50 [56] was 98.2 µM (inactive) and the GI50 [58] was 80.2 µM (inactive). For the same molecule, the GI50 [59] was 57.1 µM (inactive).
For `O=[N+]([O-])C=C1c2ccccc2-c2ccccc21`, the GI50 [1] was 16.7 µM (inactive), the GI50 [2] was 19.6 µM (inactive) and the GI50 [3] was 19.9 µM (inactive). The GI50 [4] was 16.9 µM (inactive), the GI50 [6] was 11.4 µM (inactive) and the GI50 [7] was 4.91 µM (inactive). For the same molecule, the GI50 [8] was 1.86 µM (inactive), the GI50 [60] was 2.84 µM (inactive) and the GI50 [10] was 20.4 µM (inactive). For the same molecule, the GI50 [11] was 16.8 µM (inactive), the GI50 [12] was 4.75 µM (inactive) and the GI50 [13] was 19.1 µM. For the same molecule, the GI50 [14] was 4.01 µM (inactive), the GI50 [15] was 17.5 µM (inactive) and the GI50 [17] was 20 µM (inactive). For the same molecule, the GI50 [19] was > 10 µM (inactive), the GI50 [20] was 2.52 µM (inactive) and the GI50 [66] was 19.1 µM (inactive). For the same molecule, the GI50 [21] was 17.3 µM (inactive), the GI50 [22] was 16.6 µM (inactive) and the GI50 [63] was 14.9 µM (inactive). The GI50 [23] was 12.7 µM (inactive), the GI50 [28] was 3.7 µM (inactive) and the GI50 [30] was > 10 µM (inactive). The GI50 [31] was 16.8 µM (inactive), the GI50 [32] was 20.1 µM (inactive) and the GI50 [33] was 3.76 µM (inactive). The GI50 [35] was 15.1 µM (inactive), the GI50 [36] was 14.2 µM (inactive) and the GI50 [37] was 17.4 µM (inactive). For the same molecule, the GI50 [38] was 16.4 µM (inactive), the GI50 [40] was 2.18 µM (inactive) and the GI50 [41] was 17.5 µM (inactive). For the same molecule, the GI50 [42] was 19.9 µM (inactive), the GI50 [43] was 19 µM (inactive) and the GI50 [44] was 17.5 µM (inactive). For the same molecule, the GI50 [45] was 17.2 µM (inactive), the GI50 [46] was 21.6 µM (inactive) and the GI50 [49] was 18.9 µM (inactive). For the same molecule, the GI50 [50] was 23 µM (inactive), the GI50 [51] was 25.4 µM (inactive) and the GI50 [65] was 17.4 µM (inactive). The GI50 [52] was 4.65 µM (inactive), the GI50 [53] was 16.4 µM (inactive) and the GI50 [55] was 18.3 µM (inactive). The GI50 [56] was > 10 µM (inactive), the GI50 [57] was 19.1 µM (inactive) and the GI50 [59] was 15.2 µM (inactive).

Source: ChEMBL document CHEMBL1201862, “PubChem BioAssay data set” (2004)
